# Laboratory results taken from patent US4729995A, “Pyrimidine 2,4-dioxamate compounds and pharmaceutical compositions” (Toyo Boseki Kabushiki Kaisha, priority 1986, dated 1988).
# Read-outs that look alike come from different tables or passages of the source.
# Columns and labels:
# SRS-A release = experiment: Inhibition of SRS-A release from passively sensitized guinea pig lung suspension, bioassay on isolated guinea pig ileum (Experiment 1); type: cell-based, Hartley guinea pig; conditions: Cavia porcellus, 37° C, read-out: Release inhibitory rate, SRS-A
# Protocol: (§1) Hartley guinea pig (male, weighing about 400 g) was passively sensitized by an intravenous injection of anti-egg albumin guinea pig serum. 48 hours after the sensitization, the lung was taken out and cut finely to prepare a lung suspension. To the suspension were added a test compound and egg albumin, and the mixture was incubated at 37° C. After the reaction, the mixture was centrifuged, and then the amount of histamine and SRS-A in the supernatant was measured. The amount of histamine was measured by a fluorometry in accordance with the method of May et al [cf. J. Allerg., Vol. 40, page 12 (1970)]. The amount of SRS-A was measured by a bioassay using an isolated guinea pig ileum. That is, the guinea pig ileum was suspended within Magnus vessel, and thereto were added an antihistaminic, an antiacetylcholine agent and a test solution, and based on the shrink of guinea pig ileum, the amount of SRS-A was calculated.
# [1] = system: PCA (passive cutaneous anaphylaxis); experiment: Passive cutaneous anaphylaxis (PCA) inhibition in rats (Experiment 2); type: in vivo, Wistar rats; conditions: Rattus norvegicus, read-out: PCA inhibitory rate; for inhibition in vivo at 3 mg/kg: 3 mg/kg intravenous, 5 minutes before antigen challenge, six rats (Table 5); for inhibition in vivo at 200 mg/kg: 200 mg/kg oral, one hour before induction of PCA, six rats (Table 2); for inhibition in vivo at 30 mg/kg: 30 mg/kg oral
# Protocol: Wistar rats (male, weighing about 200 g) were passively sensitized by an intradermal injection of each 0.1 ml of anti-egg albumin rat serum both sides of median line on back of the animals (each two points, totally 4 points). After 48 hours, a mixture (1 ml) of egg albumin and Evans blue was injected via tail vein, by which PCA (passive cutaneous anaphylaxis) was induced. After 30 minutes, the blue colored region was cut out and the amount of color was measured by the method of Katayama et al [cf. Microbiol. Immunol., Vol. 22, page 89 (1978)]. One hour before the induction of PCA, each test compound was orally administered to six rats at a dose of 200 mg/kg per each rat.
# In the above experiments, the test compound was orally administered to six rats at a dose of 30 mg/kg per each rat one hour before the antigen challenge.
# In the above experiments, the test compound was orally administered to six rats at a dose of 30 mg/kg per each rat 30 minutes before the antigen challenge.
# In the above experiments, the test compound was intravenously administered to six rats at a dose of 3 mg/kg per each rat 5 minutes before the antigen challenge.
# Histamine release = experiment: Inhibition of histamine release from passively sensitized guinea pig lung suspension (Experiment 1); type: cell-based, Hartley guinea pig; conditions: Cavia porcellus, 37° C, fluorometry, read-out: Release inhibitory rate, Histamine
# Protocol: as §1
# [2] = 30 minutes before antigen challenge, six rats (Table 4)
# [3] = 1 h, one hour before antigen challenge, six rats (Table 3)
SMILES,inhibition at 100 µM (SRS-A release) [%],inhibition in vivo at 3 mg/kg [1] [%],inhibition at 100 µM (Histamine release) [%],inhibition in vivo at 200 mg/kg ([1]; 1 h) [%],"inhibition in vivo at 30 mg/kg [1, 2] [%]","inhibition in vivo at 30 mg/kg [1, 3] [%]"
"O=C(O)C(=O)Nc1cc(N2CCOCC2)nc(NC(=O)C(=O)O)n1 [6-morpholinopyrimidine-2,4-dioxamic acid hydrate]",47.3,100,21.2,–,–,–
"O=C(O)C(=O)Nc1cc(N2CCCCC2)nc(NC(=O)C(=O)O)n1 [6-piperidinopyrimidine-2,4-dioxamic acid hydrate]",43.2,100,20.5,–,–,–
"CCCOC(=O)C(=O)Nc1cc(N2CCOCC2)nc(NC(=O)C(=O)OCCC)n1 [di-n-propyl 6-morpholinopyrimidine-2,4-dioxamate]",50,–,29.8,–,–,–
"CCCOC(=O)C(=O)Nc1cc(N2CCCCC2)nc(NC(=O)C(=O)OCCC)n1 [di-n-propyl 6-piperidinopyrimidine-2,4-dioxamate]",52.3,–,31.6,–,–,–
"O=C(Nc1cc(N2CCOCC2)nc(NC(=O)C(=O)OCc2ccccc2)n1)C(=O)OCc1ccccc1 [dibenzyl 6-morpholinopyrimidine-2,4-dioxamate]",52.6,–,31.1,–,–,–
"O=C(Nc1cc(N2CCCCC2)nc(NC(=O)C(=O)OCc2ccccc2)n1)C(=O)OCc1ccccc1 [dibenzyl 6-piperidinopyrimidine-2,4-dioxamate semihydrate]",48.6,–,26.5,–,–,–
"CCOC(=O)C(=O)Nc1cc(Cl)nc(NC(=O)C(=O)OCC)n1 [diethyl 4-chloropyrimidine-2,6-dioxamate monohydrate]",52.7,–,24.5,41.7,–,–
"CCOC(=O)C(=O)Nc1cc(N2CCN(C)CC2)nc(NC(=O)C(=O)OCC)n1 [diethyl 6-(4-methylpiperazino)pyrimidine-2,4-dioxamate]",33.3,–,23.7,–,–,–
"CCOC(=O)C(=O)Nc1cc(OC)nc(NC(=O)C(=O)OCC)n1 [diethyl 6-methoxypyrimidine-2,4-dioxamate monohydrate]",57.6,–,44.2,83.4,–,–
"CCOC(=O)C(=O)Nc1cc(N2CCOCC2)nc(NC(=O)C(=O)OCC)n1 [diethyl 6-morpholinopyrimidine-2,4-dioxamate]",52.6,–,36.2,96.6,91.7,–
"CCOC(=O)C(=O)Nc1cc(N2CCCCC2)nc(NC(=O)C(=O)OCC)n1 [diethyl 6-piperidinopyrimidine-2,4-dioxamate]",46.6,100,12.2,92.4,90.6,–
"CCOC(=O)C(=O)Nc1cc(N2CCCC2)nc(NC(=O)C(=O)OCC)n1 [diethyl 6-pyrrolidinopyrimidine-2,4-dioxamate]",32.8,–,16.1,87.3,73.1,–
"CC(C)OC(=O)C(=O)Nc1cc(N2CCOCC2)nc(NC(=O)C(=O)OC(C)C)n1 [diisopropyl 6-morpholinopyrimidine-2,4-dioxamate]",59.9,100,30.8,–,–,–
"COC(=O)C(=O)Nc1cc(N2CCCCCC2)nc(NC(=O)C(=O)OC)n1 [dimethyl 6-homopiperidinopyrimidine-2,4-dioxamate]",49.2,–,26.3,–,–,76.9
"COC(=O)C(=O)Nc1cc(N2CCOCC2)nc(NC(=O)C(=O)OC)n1 [dimethyl 6-morpholinopyrimidine-2,4-dioxamate]",47.3,100,27.7,–,–,98.5
"COC(=O)C(=O)Nc1cc(N2CCCCC2)nc(NC(=O)C(=O)OC)n1 [dimethyl 6-piperidinopyrimidine-2,4-dioxamate]",50,–,32.1,85.6,54.4,–
"COC(=O)C(=O)Nc1cc(N2CCCC2)nc(NC(=O)C(=O)OC)n1 [dimethyl 6-pyrrolidinopyrimidine-2,4-dioxamate]",40.2,–,19.9,–,–,81.2
